Assay results published in ChEMBL document CHEMBL1150024, “Synthesis and antiviral evaluation of enantiomeric 2,3-dideoxy- and 2,3-didehydro-2,3-dideoxy-4-thionucleosides” (Bioorg Med Chem Lett, 1995).

What was measured:
HepG2 = test: In vitro antiviral activity against HBV in Hep G2 cells; format: functional, cell-based; conditions: Homo sapiens
[1] = In vitro cytotoxic activity against Vero cells; format: cell-based; conditions: chlorocebus sabaeus, read-out: CCID50
HeLa = test: In vitro antiviral activity against HIV in HeLa CD4 cells; format: functional, cell-based; conditions: Homo sapiens

| IC50 (HepG2) | IC50 (HeLa) | Structure (SMILES) | CC50 [1] |
| --- | --- | --- | --- |
| 0.8 µM | 0.8 µM | Nc1ccn([C@@H]2C=C[C@H](CO)S2)c(=O)n1 | > 500 µM |
| 3.5 µM | 0.4 µM | Nc1nc(=O)n([C@@H]2C=C[C@H](CO)S2)cc1F | > 500 µM |
| 15 µM | 23 µM | Nc1ccn([C@H]2C=C[C@@H](CO)S2)c(=O)n1 | > 500 µM |
| > 100 µM | 38 µM | Nc1ccn([C@H]2CC[C@@H](CO)O2)c(=O)n1 [ZALCITABINE] | > 500 µM |

Continued, molecule first:

| Structure (SMILES) | IC50 (HepG2) | IC50 (HeLa) | CC50 [1] |
| --- | --- | --- | --- |
| Nc1ccn([C@@H]2CC[C@H](CO)O2)c(=O)n1 | > 100 µM | > 50 µM | > 500 µM |
| Nc1nc(=O)n([C@H]2C=C[C@@H](CO)S2)cc1F | > 50 µM | < 50 µM | > 500 µM |
| Nc1nc(=O)n([C@@H]2CC[C@H](CO)O2)cc1F | > 100 µM | > 50 µM | > 500 µM |
